The results in this text go back to patent US20130209433A1, “MODULATION OF AMINO ACID METABOLISM IN THE HYPOTHALAMUS” (Albert Einstein College of Medicine of Yeshiva University, priority 2005, published 2013).

The structures appear in SMILES notation.

One experiment concerns Sprague Dawley rats. Put plainly: ICV (third cerebral ventricle) infusion combined with systemic pancreatic-insulin clamp. Format: in vivo, rat. The conditions noted are these: for rate of glucose infusion (GIR) required to prevent hypoglycemia / decrease in endogenous glucose production / rate of glucose uptake: ICV infusion; for rate of glucose infusion (GIR) required to prevent hypoglycemia / decrease in endogenous glucose production: 3 mM solution at 5 μl/h for 6 hr; for rate of glucose infusion (GIR) required to prevent hypoglycemia: basal insulin clamp; for decrease in endogenous glucose production / rate of glucose uptake: pancreatic-insulin clamp; for rate of glucose uptake: 3 mM solution at 5 μl/h. The text has this: To test this hypothesis we asked whether a primary increase in hypothalamic proline is per se sufficient to inhibit glucose production, and whether this effect requires metabolism of lactate to pyruvate. Experiments were designed to examine the effect of central administration of proline on whole body insulin action. In order to selectively increase the central availability of proline, we infused this amino acid via a chronic cannula implanted in the third cerebral ventricle (ICV) of conscious rats.
Proline (PRO, 3 mM solution at 5 μl/h) or vehicle (CON) was infused ICV for 6 hr in chronically catheterized Sprague Dawley rats. Insulin action was assessed by a combination of ICV infusions with systemic pancreatic-insulin clamp studies in order to control for the circulating levels of glucoregulatory hormones.
We next examined whether the effect of central proline on glucose production requires the inter-conversion between lactate and pyruvate catalyzed by LDH. In light of the ‘astrocyte-neuron lactate shuttle hypothesis’ (Pellerin and Magistretti, 2004), we proposed that central administration of proline leads to increased glutamate synthesis results in the increased formation of lactate (increased glycolysis) in astro-glia (Pellerin and Magistretti, 2004). Based on our previous work, the increased availability of lactate would in turn be expected to induce robust changes in liver glucose fluxes. Consistent with this hypothesis, impeding the conversion of glucose to lactate in astrocytes or of lactate to pyruvate in neurons within the hypothalamus should inhibit the potent metabolic effects of central proline on liver glucose fluxes. Oxamate (OXA) is a competitive inhibitor of LDH (Brooks et al., 1999). Thus, to test this hypothesis we next co-infused ICV oxamate (50 mM; 3 μl bolus; 5 μl/h) with proline in order to examine whether lactate metabolism is required for the effects of proline and presumably of other gluconeogenic amino acids on glucose production.
The entry of ketogenic amino acids into the oxidative pathway requires their conversion to the respective keto acid a reaction that is catalyzed by various amino acid aminotransferases. The keto acid product generated by leucine aminotransferase from leucine is α-ketoisocaproic acid (KIC) that can then be converted to acetyl-CoA by the consecutive action of five enzymes. The rate-limiting step in this process is the oxidative decarboxylation of KIC catalyzed by the branched-chain ketoacid dehydrogenase complex or BCKDC. This enzyme is inhibited by phosphorylation by a BCKDC kinase. Importantly, BCKDC can be robustly activated by α-chloroisocaproic acid (α-CIC) via inhibition of the BCKDC kinase (Harris et al., 1982). To test whether the central metabolism of ketogenic amino acids such as leucine could also lead to inhibition of glucose production, we next asked whether a primary increase in hypothalamic KIC is per se sufficient to inhibit glucose production, and whether this effect also requires metabolism of lactate to pyruvate and activation of ATP-dependent potassium channels (KATP). Experiments were designed to examine the effect of central administration of KIC on whole body insulin action.

The subject of another experiment is conscious rats. In words: Intrahypothalamic (mediobasal hypothalamus) infusion with pancreatic clamp. Format: in vivo, rat. The following applies: for rate of glucose infusion required to maintain basal glucose levels: IH infusion 0.33 μl/h (L-glutamate 1 mM; KIC 3 mM bilaterally); for glucose production: IH infusion into mediobasal hypothalamus. The procedure:
Thus, we next tested whether the intra-hypothalamic ([…]) administration of glutamate could recapitulate the effects of […] proline on glucose production.
We next aimed to localize the central effects of KIC on liver glucose production. Toward this end, we administered 3 mM KIC (0.33 μl/h) bilaterally within the parenchyma of the medial hypothalamus. The total amount of KIC given during these experiments was 15 fold lower than that used in the ICV experiments. The correct placement of the hypothalamic cannulae was verified via the infusion of radiolabeled KIC as previously reported.

In the case of `CC(C)CC(=O)C(=O)O` [KIC, α-ketoisocaproic acid], in the experiment on Sprague Dawley rats, the “rate of glucose infusion (GIR) required to prevent hypoglycemia” value was found to be 5.2 ± 0.7 mg/kg/min, the “decrease in endogenous glucose production” value stood at 40±4% and the “rate of glucose uptake” value is reported as “not significantly affected”. Further, the “glucose utilization (GU)” value with conscious rats (IH 3 mM KIC, 0.33 μl/h bilaterally, pancreatic clamp) was “not altered”. Also, in the experiment on conscious rats (pancreatic clamp), the “rate of glucose infusion required to maintain basal glucose levels” value is given as “increase”. Besides, the glucose production result in the experiment on conscious rats is “suppression”.

For `N[C@@H](CCC(=O)O)C(=O)O` [L-glutamate], in the experiment with conscious rats (IH 1 mM, 0.33 μl/h), the “circulating glucose after IH administration” value is 136 ± 2 mg/dL. Besides, the “rate of glucose infusion required to maintain basal glucose levels” value with conscious rats (pancreatic clamp) is “significantly increased”. Besides, the glucose production result with conscious rats was “marked suppression”. Further, the “circulating glucose before IH administration” value in the experiment with conscious rats (basal value, before IH L-glutamate 1 mM, 0.33 μl/h) stood at 159 ± 3 mg/dL.

For the compound `COc1ccc(Cl)cc1C(=O)NCCc1ccc(S(=O)(=O)NC(=O)NC2CCCCC2)cc1` [glibenclamide, reference compound], the “effect per se on rate of glucose infusion and liver glucose fluxes” value in the experiment with Sprague Dawley rats (ICV infusion alone, pancreatic clamp) is “no effects”. Further, the “effect on the effects of ICV KIC on rate of glucose infusion and liver glucose fluxes” value in the experiment with Sprague Dawley rats (co-infused ICV with KIC, oxamate 50 mM, 3 μl bolus, 5 μl/h, glibenclamide 100 μM, pancreatic clamp) was “negated”.

Turning to `O=C(O)[C@@H]1CCCN1` [proline], in the experiment with Sprague Dawley rats, the “rate of glucose infusion (GIR) required to prevent hypoglycemia” value is 5.7 ± 0.9 mg/kg/min, the “decrease in endogenous glucose production” value is 36±2% and the “rate of glucose uptake” value was “not significantly affected”.

`CC(C)CC(Cl)C(=O)O` (stereo not drawn) [α-CIC, α-chloroisocaproic acid]: the glucose production entry in the experiment on conscious rats is given as “decrease endogenous glucose production”. In the experiment on conscious rats (intrahypothalamic infusion, conscious rats), the blood glucose levels entry is “lower blood glucose levels”.
